Values quoted from earlier work, collected in patent EP1001773B1, “ORAL SOLID PHARMACEUTICAL COMPOSITIONS CONTAINING NICORANDIL FOR A MODULATED RELEASE AND THE PROCESS FOR THEIR PREPARATION” (Biomedica Foscama Industria Chimico-Farmaceutica S.p.A., priority 1997, dated 1999).

Conditions: orally administered, conventional tablets; Am.J.Cardiol. 1989, 63, 25J-33J

For `O=C(NCCO[N+](=O)[O-])c1cccnc1` [Nicorandil, N-(2-hydroxyethyl) nicotinamide nitric ester], the Tmax. is given as 30 min.
